{"source": "patent US20230392180A1", "about": "“MICROSCOPIC IMAGING AND ANALYSES OF EPIGENETIC LANDSCAPE” (Sanford Burnham Prebys Medical Discovery Institute, priority 2020, published 2023)", "key": {"[1]": {"system": "primary mouse hepatocytes", "experiment": "MIEL-Rejuvenation in primary old hepatocytes", "assay_type": "cell-based, mice", "details": "for outcome in high throughput screening using primary mouse hepatocytes (miBioAge): figure legends FIG. 63-65; for shift of epigenetic signature of old cells towards that of young cells: old hepatocytes", "description": "To meet this challenge, techniques described herein were employed to analyze the effects of various drugs on the analysis of epigenome topography at the single cell level. Because of large numbers of cells required for drug screening, mice were used as a source of (C57BLACK/6) of liver hepatocytes (˜98% pure in the preparations) for probing whether epigenetic signature of aging is retained after short-term cultures of hepatocytes. […] The ability of hepatocytes to maintain age-related epigenetic or multiparametric signatures in cell culture conditions provides the foundation for high throughput screening.\nThese high content screenings using MIEL pipeline were conducted to adapt these assay conditions. Briefly, on day 0, 10,000 primary mouse hepatocytes per well were seeded in 384 well plates. Hepatocytes were isolated via a 2-step perfusion method yielding ˜98% pure population of primary hepatocytes. At 24 hrs after seeding, compounds were added in DMSO. Primary mouse hepatocytes were determined to tolerate DMSO concentrations of at least 0.1% (v/v) without adverse effects on cell growth or viability over 5 days (compared to no DMSO control). Using the Echo acoustic compound dispensing system and 10 mM stock concentration library plates, each of the drugs at concentrations up to 10 μM was sufficiently delivered. At 4 days after seeding, cells were fixed and immunolabeled with antibody to H3K9me3, H3K27me3, and H4K20me3 (initially in separate wells) to determine the efficiency of each individual mark and potential for synergy."}, "GBM2 cells [2]": {"system": "GBM2 cells", "experiment": "Immunofluorescence of core TPC transcription factors and Ki67 in drug-treated cells", "assay_type": "cell-based, human", "details": "for Sox2 expression: GBM2, 3 days treatment, Digitoxigenin 0.3 μM; for expression of the core transcription factors: GBM2, compared with serum and Bmp4; for Sall2 and Brn2 expression: GBM2, immunofluorescence", "procedure": "Cell staining: Cells were rinsed with PBS and fixed in 4% paraformaldehyde in PBS for 10 min at room temperature. After blocking with PBSAT (2% BSA and 0.5% Triton X-100 in PBS) for 1 h at room temperature, the cells were incubated overnight at 4° C. with primary antibodies diluted in PBSAT. The primary antibodies are listed in Table 2, and the appropriate fluorochrome-conjugated secondary antibodies were used at 1:500 dilution. Nuclear co-staining was performed by incubating cells with Hoechst-33342 nuclear dye.\nMicroscopy and image analysis: Unless stated otherwise, for MIEL analysis cells were imaged on an Opera QEHS high-content screening system (PerkinElmer) using ×40 water immersion objectives. Images collected on the Opera were analyzed using Acapella 2.6 (PerkinElmer). At least 40 fields per well were acquired and at least 2 wells per population were used. Features of nuclear morphology, fluorescence intensity inter-channel co-localization, and texture features (Image moments, Haralick, Threshold Adjacency Statistics) were calculated using custom algorithms (scripts available from www.andrewslab.ca). A full list of the features used is available from the authors. Values for each cell were generated and exported to MATLAB for further analysis. For Sall2, Olig2, Brn2, Sox2, Oct4 and GFAP immunostaining, images were captured on an IC200-KIC (Vala Sciences) using a ×20 objective. Between 3 and 8 fields per well were acquired and analyzed using Acapella 2.6 (PerkinElmer). For all nuclear markers, average intensities in nucleus or fold change in average intensity compared to untreated cells are shown. Unless stated otherwise, at least 3 wells and a minimum of 300 cells for each condition were compared using unpaired two-tailed t-test was.\nMicroscopy and image analysis: For MIEL analysis, cells were imaged on either an Opera QEHS high-content screening system (PerkinElmer) using ×40 water immersion objectives or an IC200-KIC (Vala Sciences) using a ×20 objective. Images collected were analyzed using Acapella 2.6 (PerkinElmer). At least 40 fields/well for Opera and 5 fields/well for IC200 were acquired and at least 2 wells per population were used. Features of nuclear morphology, fluorescence intensity inter-channel co-localization, and texture features (Image moments, Haralick, Threshold Adjacency Statistics) were calculated using custom algorithms. A full list of the features used is available from the authors. Values for each cell were generated and exported to Microsoft Excel or MATLAB for further analysis. For Sall2, Olig2, Brn2, Sox2, Oct4, and GFAP immunostaining, images were captured on an IC200-KIC (Vala Sciences) using a ×20 objective. Between 3 and 8 fields per well were acquired and analyzed using Acapella 2.6 (PerkinElmer). For all nuclear markers, average intensities in nucleus or fold change compared to untreated cells are shown. Unless stated otherwise, at least 3 wells and a minimum of 300 cells for each condition were compared using the unpaired two-tailed t-test."}, "GBM2 cells [3]": {"system": "GBM2 cells", "experiment": "RNAseq and transcriptomic analysis", "assay_type": "cell-based, human", "details": "for gene expression changes (GO terms) compared with those induced by serum or BMP4 / ranking by average Euclidean distance from serum- or Bmp4-treated cells (MIEL- and gene expression-based): GBM2, 3 days; for Euclidean distance (FPKM, all expressed genes) of treated cells to serum or Bmp4 treated cells: GBM2 TPCs; for ranking by average Euclidean distance from serum- or Bmp4-treated cells (MIEL- and gene expression-based): 8 candidate compounds", "procedure": "RNAseq and transcriptomic analysis: Total RNA was isolated from GBM2 cells using the RNeasy Kit (Qiagen), 0.5 ug total RNA was used for isolation of mRNAs and library preparation. Library preparation and sequencing was conducted by the SBP genomics core (Sanford-Burnham NCI Cancer Center Support Grant P30 CA030199). PolyA RNA was isolated using the NEBNext® Poly(A) mRNA Magnetic Isolation Module and barcoded libraries were made using the NEBNext® Ultra II™ Directional RNA Library Prep Kit for Illumina® (NEB, Ipswich MA). Libraries were pooled and single end sequenced (1X75) on the Illumina NextSeq 500 using the High output V2 kit (Illumina). Read data was processed in BaseSpace. Reads were aligned to Homo sapiens genome (hg19) using STAR aligner with default settings. Differential transcript expression was determined using the Cufflinks Cuffdiff package. Go term enrichment analysis was conducted using PANTHER v11 using all genes identified as differentially expressed following either serum or Bmp4 treatment. For heat maps showing fold change in expression the FPKM values in each population were divided by the average FPKM values of untreated GBM2. To highlight differences in expression levels between serum and Bmp4 treated GBM2 cells the FPKM values in each sample were z-scored. Zscore=(FPKMObservation−FPKMAverage)/FPKMSD (FPKMObservation−FPKM value obtain through sequencing; FPKMAverage−average of all FPKM values in all samples for a certain gene; FPKMSD−standard deviation of FPKM values for a certain gene). Heat maps were generated using Microsoft Excel conditional formatting function.\nCorrelation of transcriptomic and image-based profiles: Euclidean distance between untreated, serum or Bmp4 treated GBM2 cells (triplicates for each) was calculated using either transcriptomic data (FPKM) or texture features. Pearson's correlation coefficient (R) was transformed to a t-value using the formula (t=R×SQRT(N−2)/SQRT(1−R2) where N is the number of samples, and R is Pearson correlation coefficient, and the p-value was calculated using Excel tdist(t) function. For compound prioritization, the Euclidean distance between compound treated and serum or Bmp4 treated GBM2 cells was calculated based on either transcriptomic data (FPKM) or image features. The average distance to both serum and Bmp4 treatments was normalized to the average distance of untreated cells to serum and Bmp4.\nRNAseq and transcriptomic analysis: Total RNA was isolated from GBM2 cells using the RNeasy Kit (Qiagen), 0.25 μg total RNA was used to isolate mRNAs and for library preparation. Library preparation and sequencing were conducted by the SBP genomics core (Sanford-Burnham NCI Cancer Center Support Grant P30 CA030199). PolyA RNA was isolated using the NEBNext® Poly(A) mRNA Magnetic Isolation Module, and barcoded libraries were made using the NEBNext® Ultra II™ Directional RNA Library Prep Kit for Illumina® (NEB, Ipswich MA). Libraries were pooled and single-end sequenced (1×75) on the Illumina NextSeq 500 using the High-Output V2 kit (Illumina). Read data, processed in BaseSpace, were aligned to Homo sapiens genome (hg19) using STAR aligner with default settings. Differential transcript expression was determined using the Cufflinks Cuffdiff package. For heat maps showing fold change in expression, FPKM values in each HDACi-treated population were divided by the average FPKM values of DMSO-treated GBM2 and values shown as log 2 of the ratio. Go enrichment analysis was conducted using PANTHER v11 using all genes identified as differentially expressed following either serum or Bmp4 treatment. To highlight differences in expression levels between serum- and Bmp4-treated GBM2 cells, FPKM values in each sample were z-scored. Zscore=(FPKMObservation−FPKMAverage)/FPKMSD (FPKMObservation−FPKM value obtain through sequencing; FPKMAverage−average of all FPKM values in all samples for a certain gene; FPKMSD−standard deviation of FPKM values for a certain gene). […]"}, "TPCs": {"system": "TPCs", "experiment": "Growth rate of treated glioblastoma cells", "details": "GBM2, 3 days, compared with serum/Bmp4 treatment"}}, "note": "“Also recorded” adds a separate entry of the source."}
{"smiles": "COc1ncc(-c2ccc3nccc(-c4ccnnc4)c3c2)cc1NS(=O)(=O)c1ccc(F)cc1F", "note": "[GSK2126458]", "values": [{"measurement": "outcome in high throughput screening using primary mouse hepatocytes (miBioAge)", "setting": "[1]", "value": "hits to be tested in animal models"}]}
{"smiles": "CC(Cc1ccc(O)c(O)c1)C(C)Cc1ccc(O)c(O)c1", "note": "(centres unmarked) [NDGA]", "values": [{"measurement": "outcome in high throughput screening using primary mouse hepatocytes (miBioAge)", "setting": "[1]", "value": "positive controls"}, {"measurement": "shift of epigenetic signature of old cells towards that of young cells", "setting": "[1]", "value": "Statistically significant dose-dependent shifts"}]}
{"smiles": "C[C@]12CC[C@H](O)C[C@H]1CC[C@@H]1[C@@H]2CC[C@]2(C)[C@@H](C3=CC(=O)OC3)CC[C@]12O", "note": "[Digitoxigenin]", "values": [{"measurement": "Sox2 expression", "setting": "GBM2 cells [2]", "value": "reduce"}, {"measurement": "expression of the core transcription factors", "setting": "GBM2 cells [2]", "value": "downregulate"}, {"measurement": "Sall2 and Brn2 expression", "setting": "GBM2 cells [2]", "value": "significant reduction"}, {"measurement": "gene expression changes (GO terms) compared with those induced by serum or BMP4", "setting": "GBM2 cells [3]", "value": "markedly different"}, {"measurement": "Euclidean distance (FPKM, all expressed genes) of treated cells to serum or Bmp4 treated cells", "setting": "GBM2 cells [3]", "value": "Neither Digitoxigenin nor Digoxin reduced the distance"}]}
{"smiles": "CC(C)n1nc(-c2ccc3oc(N)nc3c2)c2c(N)ncnc21", "note": "[INK128]", "values": [{"measurement": "outcome in high throughput screening using primary mouse hepatocytes (miBioAge)", "setting": "[1]", "value": "hits to be tested in animal models"}]}
{"smiles": "Cn1c(=O)n(-c2ccc(C(C)(C)C#N)cc2)c2c3cc(-c4cnc5ccccc5c4)ccc3ncc21", "note": "[NVP-BEZ235]", "values": [{"measurement": "outcome in high throughput screening using primary mouse hepatocytes (miBioAge)", "setting": "[1]", "value": "hits to be tested in animal models"}]}
{"smiles": "C[C@]12CC[C@@H]3c4ccc(O)cc4CC[C@H]3[C@@H]1CC[C@@H]2O", "note": "[17 beta-estradiol]", "values": [{"measurement": "outcome in high throughput screening using primary mouse hepatocytes (miBioAge)", "setting": "[1]", "value": "positive controls"}]}
{"smiles": "O=C(O)C(Cc1c[nH]c2ccccc12)N1C(=O)c2ccccc2C1=O", "note": "(centres unmarked) [RG108]", "values": [{"measurement": "outcome in high throughput screening using primary mouse hepatocytes (miBioAge)", "setting": "[1]", "value": "inactive molecules"}]}
{"smiles": "COc1cc([C@@H]2c3cc4c(cc3[C@@H](O[C@@H]3O[C@@H]5CO[C@@H](C)O[C@H]5[C@H](O)[C@H]3O)[C@H]3COC(=O)[C@H]23)OCO4)cc(OC)c1O", "note": "[etoposide]", "values": [{"measurement": "ranking by average Euclidean distance from serum- or Bmp4-treated cells (MIEL- and gene expression-based)", "setting": "GBM2 cells [3]", "value": "top candidate"}]}
{"smiles": "NC(=O)c1ccc[n+]([C@@H]2O[C@H](COP(=O)([O-])O)[C@@H](O)[C@H]2O)c1", "note": "[Nicotiamide mononucleotide, Nicotinamide mononucleotide]", "values": [{"measurement": "outcome in high throughput screening using primary mouse hepatocytes (miBioAge)", "setting": "[1]", "value": "inactive molecules"}]}
{"smiles": "CC(=O)Oc1ccccc1C(=O)O", "note": "[aspirin]", "values": [{"measurement": "shift of epigenetic signature of old cells towards that of young cells", "setting": "[1]", "value": "Statistically significant dose-dependent shifts"}]}
{"smiles": "C[C@H]1O[C@@H](O[C@H]2[C@@H](O)C[C@H](O[C@H]3[C@@H](O)C[C@H](O[C@H]4CC[C@@]5(C)[C@H](CC[C@@H]6[C@@H]5C[C@@H](O)[C@]5(C)[C@@H](C7=CC(=O)OC7)CC[C@]65O)C4)O[C@@H]3C)O[C@@H]2C)C[C@H](O)[C@@H]1O", "note": "[Digoxin]", "values": [{"measurement": "Sox2 expression", "setting": "GBM2 cells [2]", "value": "reduced"}, {"measurement": "expression of the core transcription factors", "setting": "GBM2 cells [2]", "value": "downregulate"}, {"measurement": "Sall2 and Brn2 expression", "setting": "GBM2 cells [2]", "value": "significant reduction"}, {"measurement": "gene expression changes (GO terms) compared with those induced by serum or BMP4", "setting": "GBM2 cells [3]", "value": "markedly different"}, {"measurement": "ranking by average Euclidean distance from serum- or Bmp4-treated cells (MIEL- and gene expression-based)", "setting": "GBM2 cells [3]", "value": "lowest-ranking candidate"}, {"measurement": "gene expression changes (GO terms) compared with those induced by serum or BMP4", "setting": "GBM2 cells [3]; listed as digoxin", "value": "rather different"}, {"measurement": "Euclidean distance (FPKM, all expressed genes) of treated cells to serum or Bmp4 treated cells", "setting": "GBM2 cells [3]", "value": "Neither Digitoxigenin nor Digoxin reduced the distance"}, {"measurement": "growth rate of drug-treated cells", "setting": "TPCs", "value": "stronger reduction; also recorded: cytostatic"}, {"measurement": "growth rate of drug-treated cells", "setting": "TPCs; listed as digoxin", "value": "cytostatic"}]}
{"smiles": "CN(C)C(=N)N=C(N)N", "note": "[Metformin]", "values": [{"measurement": "outcome in high throughput screening using primary mouse hepatocytes (miBioAge)", "setting": "[1]", "value": "positive controls"}]}
{"smiles": "NC(=O)c1ccc[n+]([C@@H]2O[C@H](CO)[C@@H](O)[C@H]2O)c1", "note": "[nicotinamide riboside]", "values": [{"measurement": "outcome in high throughput screening using primary mouse hepatocytes (miBioAge)", "setting": "[1]", "value": "inactive molecules"}]}
